What is called Ki is a dissociation constant, usually derived from enzyme kinetics or from competition with a known ligand. Read a high Ki as a looser hold on the target. A word on the IC50: it is the point on the concentration scale where inhibition reaches its midpoint. The low end stands for higher potency, the high end for lower potency.

We go through nine compounds from patent US6350741B1, “Inhibitors of interleukin-1β converting enzyme” (Vertex Pharmaceutical, Inc., priority 1996, dated 2002).

The target in experiment [1] is T1, ICE (Homo sapiens, UniProt P29466).
T1 sequence (P29466 120-297 limits assumed): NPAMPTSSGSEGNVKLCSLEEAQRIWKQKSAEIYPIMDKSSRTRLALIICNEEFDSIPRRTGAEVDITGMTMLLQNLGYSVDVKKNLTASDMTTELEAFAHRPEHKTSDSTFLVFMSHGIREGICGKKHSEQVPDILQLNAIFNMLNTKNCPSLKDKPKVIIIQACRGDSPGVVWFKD
T1 sequence (P29466 317-404 limits assumed): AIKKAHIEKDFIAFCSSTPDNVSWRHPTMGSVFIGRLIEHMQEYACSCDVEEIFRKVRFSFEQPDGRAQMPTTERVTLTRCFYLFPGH
Nature of the experiment: Enzyme assay with UV-visible substrate (ICE inhibition). The experiment is classed as biochemical. Conditions: Succinyl-Tyr-Val-Ala-Asp-p-Nitroanilide substrate. Here is the method: 1. Enzyme Assay with UV-visible Substrate
This assay is run using an Succinyl-Tyr-Val-Ala-Asp-p-Nitroanilide substrate. Synthesis of analogous substrates is described by L. A. Reiter (Int. J. Peptide Protein Res., 43, pp. 87-96 (1994)). The assay mixture contains:
65 μl buffer (10 mM Tris, 1 mM DTT, 0.1% CHAPS @ pH 8.1)
10 μl ICE (50 nM final concentration to give a rate of ˜1 mOD/min)
5 μl DMSO/Inhibitor mixture
20 μl 400 μM Substrate (80 μM final concentration)
100 μl total reaction volume
The visible ICE assay is run in a 96-well microtiter plate. Buffer, ICE and DMSO (if inhibitor is present) are added to the wells in the order listed. The components are left to incubate at room temperature for 15 minutes starting at the time that all components are present in all wells. The microtiter plate reader is set to incubate at 37° C. After the 15 minute incubation, substrate is added directly to the wells and the reaction is monitored by following the release of the chromophore (pNA) at 405-603 nm at 37° C. for 20 minutes. A linear fit of the data is performed and the rate is calculated in mOD/min. DMSO is only present during experiments involving inhibitors, buffer is used to make up the volume to 100 μl in the other experiments.
For determination of enzyme inhibition constants (Ki) or the mode of inhibition (competitive, uncompetitive or noncompetitive), the rate data determined in the enzyme assays at varying inhibitor concentrations are computer-fit to standard enzyme kinetic equations (see I. H. Segel, Enzyme Kinetics, Wiley-Interscience, 1975).

For experiment [2], the system named is IL-1β production in human whole blood. Nature of the experiment: Whole blood assay for IL-1β production. Conditions: LPS-stimulated human whole blood, IL-1β by ELISA. Format: cell-based. Here is the method:
Whole Blood Assay for IL-1β Production
The whole blood assay is a simple method for measuring the production of IL-1β (or other cytokines) and the activity of potential inhibitors. The complexity of this assay system, with its full complement of lymphoid and inflammatory cell types, spectrum of plasma proteins and red blood cells is an ideal in vitro representation of human in vivo physiologic conditions.
Set incubator or water bath at 30° C. Aliquot 0.25 ml of blood into 1.5 ml eppendorf tubes. Note: be sure to invert the whole blood sample tubes after every two aliquots. Differences in replicates may result if the cells sediment and are not uniformly suspended. Use of a positive displacement pipette will also minimize differences between replicate aliquots.
Prepare drug dilutions in sterile pyrogen-free saline by serial dilution. A dilution series which brackets the apparent Ki for a test compound determined in an ICE inhibition assay is generally used for the primary compound screen. For extremely hydrophobic compounds, prepare compound dilutions in fresh plasma obtained from the same blood donor or in PBS-containing 5% DMSO to enhance solubility.
Add 25 μl test compound dilution or vehicle control and gently mix the sample. Then add 5.0 μl LPS solution (250 ng/ml stocked prepared fresh: 5.0 ng/ml final concentration LPS), and mix again. Incubate the tubes at […] in a water bath for 16-18 hr with occasional mixing. Alternatively, the tubes can be placed in a rotator set at 4 rpm for the same incubation period. This assay should be set up in duplicate or triplicate with the following controls: negative control—no LPS; positive control—no test inhibitor; vehicle control—the highest concentration of DMSO or compound solvent used in the experiment. Additional saline is added to all control tubes to normalize volumes for both control and experimental whole blood test samples.
After the incubation period, whole blood samples are centrifuged for 10 minutes at ˜2000 rpm in the microfuge, plasma is transferred to a fresh microfuge tube and centrifuged at 1000×g to pellet residual platelets if necessary. Plasma samples may be stored frozen at −70° C. prior to assay for cytokine levels by ELISA.
R & D Systems (614 McKinley Place N.E. Minneapolis, Minn. 55413) Quantikine kits may be used for measurement of IL-1β and TNF-α. The assays are performed according to the manufacturer's directions. IL-1β levels of ˜1-5 ng/ml in positive controls among a range of individuals may be observed. A 1:200 dilution of plasma for all samples is usually sufficient for experiments for ELISA results to fall on the linear range of the ELISA standard curves. It may be necessary to optimize standard dilutions if you observe differences in the whole blood assay. Nerad, J. L. et al., J. Leukocyte Biol., 52, pp. 687-692 (1992).
For orientation: In an ELISA, binding on a coated surface is turned into a signal by an enzyme label.

For experiment [3], the system named is mature IL-1β in human PBMC. Nature of the experiment: PBMC cell assay (IL-1β assay with human peripheral blood mononuclear cells). The experiment is classed as cell-based. Conditions: LPS-stimulated human PBMC, mature IL-1β by ELISA. From the text: IL-1β Assay with a Mixed Population of Human Peripheral Blood Mononuclear Cells (PBMC) or Enriched Adherent Mononuclear Cells
Processing of pre-IL-1β by ICE can be measured in cell culture using a variety of cell sources. Human PBMC obtained from healthy donors provides a mixed population of lymphocyte subtypes and mononuclear cells that produce a spectrum of interleukins and cytokines in response to many classes of physiological stimulators. Adherent mononuclear cells from PBMC provides an enriched source of normal monocytes for selective studies of cytokine production by activated cells.
An initial dilution series of test compound in DMSO or ethanol is prepared, with a subsequent dilution into RPMI-10% FBS media (containing 2 mM L-glutamine, 10 mM HEPES, 50 U and 50 ug/ml pen/strep) respectively to yield drugs at 4×the final test concentration containing 0.4% DMSO or 0.4% ethanol. The final concentration of DMSO is 0.1% for all drug dilutions. A concentration titration which brackets the apparent Ki for a test compound determined in an ICE inhibition assay is generally used for the primary compound screen.
Generally 5-6 compound dilutions are tested and the cellular component of the assay is performed in duplicate, with duplicate ELISA determinations on each cell culture supernatant.
Buffy coat cells isolated from one pint human blood (yielding 40-45 ml final volume plasma plus cells) are diluted with media to 80 ml and LeukoPREP separation tubes (Becton Dickinson) are each overlaid with 10 ml of cell suspension. After 15 min centrifugation at 1500-1800×g, the plasma/media layer is aspirated and then the mononuclear cell layer is collected with a Pasteur pipette and transferred to a 15 ml conical centrifuge tube (Corning). Media is added to bring the volume to 15 ml, gently mix the cells by inversion and centrifuge at 300×g for 15 min. The PBMC pellet is resuspended in a small volume of media, the cells are counted and adjusted to 6×10^6 cells/ml.
For the cellular assay, 1.0 ml of the cell suspension is added to each well of a 24-well flat bottom tissue culture plate (Corning), 0.5 ml test compound dilution and 0.5 ml LPS solution (Sigma #L-3012; 20 ng/ml solution prepared in complete RPMI media; final LPS concentration 5 ng/ml). The 0.5 ml additions of test compound and LPS are usually sufficient to mix the contents of the wells. Three control mixtures are run per experiment, with either LPS alone, solvent vehicle control, and/or additional media to adjust the final culture volume to 2.0 ml. The cell cultures are incubated for 16-18 hr at 37° C. in the presence of 5% CO2.
At the end of the incubation period, cells are harvested and transferred to 15 ml conical centrifuge tubes. After centrifugation for 10 min at 200×g, supernatants are harvested and transferred to 1.5 ml Eppendorf tubes. It may be noted that the cell pellet may be utilized for a biochemical evaluation of pre-IL-1β and/or mature IL-1β content in cytosol extracts by Western blotting or ELISA with pre-IL-1β specific antisera.
PBMC are isolated and prepared as described above. Media (1.0 ml) is first added to wells followed by 0.5 ml of the PBMC suspension. After a one hour incubation, plates are gently shaken and nonadherent cells aspirated from each well. Wells are then gently washed three times with 1.0 ml of media and final resuspended in 1.0 ml media. The enrichment for adherent cells generally yields 2.5-3.0×10^5 cells per well. […]

In experiment [4] the test system is IL-1β. Briefly: LPS-induced IL-1β production in mice. The experiment is classed as in vivo, mouse. Conditions: PO @ 100 mg/kg, compound given 1 hour relative to LPS challenge. Here is the method:
In vivo Acute Assay for Efficacy as Anti-inflammatory Agent
LPS-Induced IL-1β Production
Efficacy is evaluated in CD1 mice (n is 6 per condition, for example) challenged with LPS (20 mg/kg IP). The test compounds are prepared in olive oil:DMSO:ethanol (90:5:5) and administered by IP injection one hour after LPS. Blood is collected seven hours after LPS challenge. Serum IL-1β levels are measured by ELISA.
Compounds may also be administered by oral gavage to assess absorption.
We obtained inhibition data in Table 5 using the methods described in Example 12. Efficacy for Prodrugs in LPS-Induced IL-1β Production in Mice. Time of compound administration relative to time of LPS challenge was 1 hour. Dose of compound was PO @ 100 mg/kg.

With `Cc1cc(C(=O)N[C@H]2CSc3ccccc3N(CC(=O)N[C@H](C=O)CC(=O)O)C2=O)cc(C)c1O` [Compound 11a, (3S)-3-[(3S)-3-(3,5-Dimethyl-4-hydroxybenzoyl)amino-4-oxo-2,3,4,5-tetrahydro-5H-1,5-benzothiazepine-5-acetylamino]-4-oxo-butyric acid], the Ki in experiment [1] was 0.0075 µM. Moreover, the IC50 in experiment [2] is 8.8 µM.
For `O=C[C@H](CC(=O)O)NC(=O)CN1C(=O)[C@@H](NC(=O)c2nccc3ccccc23)CC(=O)c2ccccc21` [Compound 17b, (3S)-3-[(3S)-2,5-Dioxo-3-(isoquinolin-1-oyl)amino-2,3,4,5-tetrahydro-1H-1-benzazopine-1-acetylamino]-4-oxo-butyric acid.], affinity in experiment [1] was put at a Ki of 0.045 µM. The IC50 in experiment [2] is over 20 µM; in experiment [3], 1.72 µM.
In turn, `O=C[C@H](CC(=O)O)NC(=O)CN1C(=O)[C@@H](NC(=O)c2c[nH]c3ccccc23)COc2ccccc21` [Compound 6c] displayed a Ki in experiment [1] of 0.02 µM. Also, the IC50 in experiment [2] was over 20 µM; in experiment [3], 0.65 µM.
`O=C[C@H](CC(=O)O)NC(=O)CN1C(=O)[C@@H](NC(=O)c2nccc3ccccc23)CS(=O)(=O)c2ccccc21` [Compound 19a]: affinity in experiment [1] was put at a Ki of 0.14 µM. Besides, the IC50 was 9.5 µM in experiment [2] and 0.77 µM in experiment [3].
Consider `O=C[C@H](CC(=O)O)NC(=O)CN1C(=O)[C@@H](NC(=O)c2nccc3ccccc23)COc2ccccc21` [Compound 6a], for which the Ki in experiment [1] was determined as 0.022 µM. For the same compound, the values for the IC50 in experiment [2] and in experiment [3] were over 20 µM and 1 µM, respectively.
As to `Cc1cc(C(=O)N[C@H]2CC(=O)c3ccccc3N(CC(=O)N[C@H](C=O)CC(=O)O)C2=O)cc(C)c1O` [Compound 17a, (3S)-3-[(3S)-2,5-Dioxo-3-(3,5-dimethyl-4-hydroxybenzoyl)amino-2,3,4,5-tetrahydro-1H-1-benzazepine-1-acetylamino]-4-oxo-butyric acid], the inhibition constant (Ki) in experiment [1] was determined as 0.012 µM. The compound further gave an IC50 in experiment [2] of 3.2 µM.
“(3S)-3-(Isoquinolin-1-oyl)amino-4-oxo-2,3,4,5-tetrahydro-5H-1,5-benzoxazepine-N-[(2RS, 3S)-2-benzyloxy-5-oxo-tetrahydrofuran-3-yl]-5-acetamide [Compound 5a]”: the “% Inhibition of IL-1β” value in experiment [4] stood at 58%.
`O=C[C@H](CC(=O)O)NC(=O)CN1C(=O)[C@@H](NC(=O)c2nccc3ccccc23)CSc2ccccc21` [Compound 11b] displayed a Ki in experiment [1] of 0.014 µM. The IC50 in experiment [2] stood at 19 µM; in experiment [3], 0.8 µM.
In the case of “(3S)-3-(Isoquinolin-1-oyl)amino-4-oxo-2,3,4,5-tetrahydo-5H-1,5-benzothiazepine-N-((2RS, 3S)-2-benzyloxy-5-oxo-tetrahydrofuran-3-yl)-5-acetamide [Compound 10b]”, the “% Inhibition of IL-1β” value in experiment [4] was found to be 74%.
